# Test results taken from patent US8865909B2, “Anti-biofilm agents” (Yissum Research Development Company of the Hebrew …, priority 2008, dated 2014).
# Assays:
# V. harveyi biofilm = assay: Quorum sensing (luminescence) in mature biofilm; type: cell-based; set-up: reduction of QS: dose or concentration left out as unconfirmed; details: for reduction of QSI: maximal tested concentration
# Procedure: The working protocol for the biofilm disruption assays were conducted as follows. The tested V. harveyi strains (BB120, BB721, BB170, BB886) were grown to cell density of 1.5-2.5×10^9 CFU/ml (15-16 hrs) in AB medium at 30° C. with constant shaking and the suspension was diluted (1:5,000) in fresh AB medium. Aliquot of the suspension (200 μl) was added to each well in a white 96-well plate (NUNC) and incubated for 18 hours at 30° C. without shaking. The formed biofilm was carefully washed twice with saline. Fresh AB medium containing the exemplary ABF agent at the various tested concentrations, and either 10% (v/v) spent medium of V. harveyi MM30 (containing AI-1) or 10% (v/v) spent medium of V. harveyi BB152 (containing AI-2) were added, for further 18 hours of incubation as described above. Each sample was also tested without the spent medium as control to examine self induction. Positive and negative controls were included as described above. Each sample was tested in three separate biological experiments in triplicate samples. Luminescence was calculated as the AUC using the trapezoid rule.
# MDCK cells = MDCK cells detachment assay; type: cell-based, canine
# Procedure: Madine-Derby canine kidney cells (MDCK) are a non-cancerous, polarized epithelial cell line, used in the research of cell polarity mechanisms, and in the research of pathogen interactions with epithelial tissues. These cells produce monolayers in which cells are polarized and tightly connected to each other. The cells were treated with TZD10 for 40 minutes without the XTT reagents that were then added for further 120 minutes incubation. The influence of TZD10 on the attachment of MDCK cells was investigated using an identical method used for the Vero cells (the 96 well polystyrene plate method) as presented hereinabove.
# Vero cells = assay: Vero cell viability assay (XTT); type: cell-based; details: 160 minutes
# Procedure: The effect of TZD10 on the viability of Vero cells was detected by incubating the cells for 40 minutes with TZD10, and further incubation for 120 minutes with the XTT reagents in the same medium without washings, so that the total incubation time with TZD10 was 160 minutes. The cells were treated with TZD10 for 40 minutes without the XTT reagents that were then added for further 120 minutes incubation.
smiles,measurement,setting,value
"CCCCCCCCC/C=C1\SC(=O)NC1=O [TZD10, (Z)-5-decylidenethiazolidine-2,4-dione]",reduction of QSI activity,"V. harveyi biofilm; AI-1 spent medium, 0.200 μM, BB886",39%
same,reduction of QSI activity,"V. harveyi biofilm; AI-1 spent medium, 0.200 μM, wild-type",62%
same,reduction of QS activity,"V. harveyi biofilm; AI-1 spent medium, 2 μM, BB886",10%
same,reduction of QS activity,"V. harveyi biofilm; AI-1 spent medium, 2 μM, wild type BB120",18%
same,change in QSI,"V. harveyi biofilm; AI-2 spent medium, 2 μM, BB170",minor increase
same,reduction of QSI activity,"V. harveyi biofilm; AI-2 spent medium, 2 μM, BB721 (LuxO null)",25%
same,change in QSI,"V. harveyi biofilm; AI-2 spent medium, 2 μM, wild-type BB120",minor increase
same,reduction of QSI,"V. harveyi biofilm; AI-2 spent medium, BB170",44%
same,reduction of QSI,"V. harveyi biofilm; AI-2 spent medium, BB721",72%
same,reduction of QSI,"V. harveyi biofilm; AI-2 spent medium, wild-type",35%
same,QS inhibition versus concentration,"V. harveyi biofilm; all tested strains, mature biofilm",positive dose response
same,effect on QS,"V. harveyi biofilm; no AI-1 nor AI-2, BB170, 2 μM",no effect
same,reduction of QS,"V. harveyi biofilm; no AI-1 nor AI-2, BB170, highest tested concentration",62%
same,reduction of QSI activity,"V. harveyi biofilm; no AI-1 nor AI-2, BB721, 2 μM",38%
same,reduction of QSI activity,"V. harveyi biofilm; no AI-1 nor AI-2, BB721, 20 μM",63%
same,reduction of QSI activity,"V. harveyi biofilm; no AI-1 nor AI-2, BB721, 200 μM",79%
same,reduction of QSI activity,"V. harveyi biofilm; no AI-1 nor AI-2, BB886, 2 μM",30%
same,reduction of QSI activity,"V. harveyi biofilm; no AI-1 nor AI-2, BB886, 200 μM",40%
same,cell detachment from the polystyrene dish,MDCK cells,detached
same,time of detachment compared with Vero cells,MDCK cells,observed sooner than it has been observed with Vero cells
same,toxicity to Vero cells,Vero cells; 125 μg/ml and above,partially cytotoxic
same,toxicity to Vero cells,Vero cells; up to 100 μg/ml,not toxic
